Assay results: ChEMBL document CHEMBL3988442, “University of Dundee, Small-Polar-MMV Screening Library” (2021)
pIC50: −log10 of the molar value. Several values for one entry are separate records, joined by “and”; a condition that tells them apart may be missing. Equal values may be shown once.

Target: T1, Coenzyme A biosynthesis bifunctional protein CoaBC (Mycobacterium tuberculosis (strain ATCC 25618 / H37Rv), UniProt P9WNZ1)
T1 sequence (P9WNZ1 whole entry): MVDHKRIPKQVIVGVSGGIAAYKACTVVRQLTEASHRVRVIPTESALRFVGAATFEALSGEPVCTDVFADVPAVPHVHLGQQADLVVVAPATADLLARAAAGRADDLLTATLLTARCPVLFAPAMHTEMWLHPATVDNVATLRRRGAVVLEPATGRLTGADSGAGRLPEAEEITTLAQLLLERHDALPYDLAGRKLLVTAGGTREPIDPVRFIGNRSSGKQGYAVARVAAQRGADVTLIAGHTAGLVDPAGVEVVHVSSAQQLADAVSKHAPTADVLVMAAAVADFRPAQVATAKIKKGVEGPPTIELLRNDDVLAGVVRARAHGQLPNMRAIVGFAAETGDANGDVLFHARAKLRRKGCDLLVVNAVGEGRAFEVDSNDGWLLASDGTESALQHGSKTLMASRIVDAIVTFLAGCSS
Assay: Biomol Green assay for MtCoaBC inhibitor, OD650 read
Format: functional

Compound	pIC50
Cc1ccc(OCCC(=O)N2CCOCC2c2ncon2)cc1C (stereo not given)	< 4.52
COc1ccc(CN[C@@H]2CO[C@H](CNC(=O)N3CCOCC3)[C@H]2O)cc1	< 4.52
O=C(Nc1ccc(-n2cncn2)nc1)N(CC1CCOC1)C1CC1 (stereo not given)	< 4.52
COCCC(Cc1cccc(Br)c1)C(=O)O (stereo not given)	< 4.30
C[C@H]1CN2C[C@H](O)CC2CN1Cc1ccc2nccnc2c1 (stereo not given in full)	< 4.52
COc1ccc(CC(=O)Nc2ccc3ncn(C(C)C)c(=O)c3c2)cc1	< 4.52
O=C(O)COc1ccc(CN2CCCC(CCc3ccccc3)C2)cc1 (stereo not given)	4.70 and 4.71
CSCc1noc(CNC(=O)C2CCN(C(=O)C3CC3)CC2)n1	< 4.52
CN(C)C(C(=O)NCc1cc(C(C)(C)C)n[nH]1)c1ccc(F)cc1 (stereo not given)	< 4.52
CN(CC(N)=O)C(=O)c1csc(Br)c1	< 4.52
NC(=O)CN1CCC(NC(=O)COCCOc2ccccc2)CC1	< 4.52
O=C(NCCn1nc2ccccn2c1=O)c1cc[nH]n1	< 4.52
O=c1c2ccccc2nc2n1CCC2O (stereo not given)	< 4.52
COc1cc(CNC2CCc3nc(C)nn3C2)cc2c1OCO2 (stereo not given)	< 4.52
O=C(C1CC1)N1CCC(c2nc(O)c3c(n2)CCN(C2CCCC2)C3)C1 (stereo not given)	< 4.52
CC(C)CC(NC(=O)c1cccs1)c1nc2cccnc2n1C (stereo not given)	< 4.52
CC(C)NC(=O)[C@@H]1C[C@H](N)CN1C(=O)C1(c2ccc(Cl)cc2)CCC1	< 4.52
O=C(c1cccnc1SC/C=C/c1ccccc1)N1CCOCC(O)C1 (stereo not given)	< 4.52
COc1cccc(N2CCC(CNCc3cccc(C#N)c3)C2)c1 (stereo not given)	< 4.52
Cc1cnc(C)c(-c2cccc(-c3ccn(CCN4CCCC4)n3)c2)n1	< 4.52
Cc1cccc(CNC(=O)NCC2CCN(Cc3ncc[nH]3)C2)c1 (stereo not given)	< 4.52
O=C(NCc1nc(NC2CCCC2)c2cc(Cl)ccc2n1)c1ccoc1	< 4.52
Cc1noc(C)c1CN1CCn2cc(CNc3ccccn3)nc2C1	< 4.52

Compound	pIC50
CC(O)c1cn(Cc2ccc(Cl)cc2)nn1 (stereo not given)	< 4.52
CC1CCN(c2ccc(C(=O)N3CCCC3c3ccc[nH]3)cn2)CC1 (stereo not given)	< 4.52
O=C(NCCc1ccncc1)[C@H]1C[C@@H]2CCN(c3nncs3)C[C@H]2O1	< 4.52
COc1ccccc1N1CCC(CNCc2ccc(C#N)cc2)C1 (stereo not given)	< 4.52
COc1ccccc1CC(C)CC(=O)NC(C)C (stereo not given)	< 4.52
CC(C)c1noc(CN2CCN(C(=O)c3cc(Cl)ccc3F)CC2)n1	< 4.52
O=C(c1ccc(-n2cnnn2)cc1)N1CCCC(n2ccnc2)C1 (stereo not given)	< 4.52
CN1CCOC[C@H]1c1nc(-c2ccc(F)cc2F)c[nH]1	< 4.52
Cc1cc(CN2CCOC(CNc3cccnn3)C2)no1 (stereo not given)	< 4.52
COC1CCN(CCNC(=O)NC(C)c2ccc(F)c(F)c2)CC1 (stereo not given)	< 4.52
CCC(=O)N1CCc2[nH]cnc2C12CCN(CC1CCOC1)CC2 (stereo not given)	< 4.52
CCN1CCCC1CNC(=O)Cc1c(-c2ccc(Cl)cc2)n[nH]c1C (stereo not given)	< 4.52
Cc1ncc2c(n1)CCN(CCCc1nc3ccccc3o1)C2	< 4.30
Cc1c(C(=O)N2CCN(c3ccccn3)CC2)n(C)c2ccc(Cl)cc12	< 4.52
CN1C[C@@H](C(=O)N2CCCOCC2)[C@@]2(CCc3ccccc3C(=O)N2)C1	< 4.52
CC(NCc1ccccc1Cl)c1ccc2[nH]c(=O)[nH]c2c1 (stereo not given)	< 4.52
Cc1cc(N2CCC(c3ncc[nH]3)CC2)nc(N)n1	< 4.52
Cc1ccnc(N2C[C@@H]3CC[C@H](C2)N(CC2CCC2)C3=O)n1	< 4.52
CC(C)C(C)(C#N)NC(=O)Cn1cc(C(N)=O)c(-c2ccccc2)n1 (stereo not given)	< 4.52
COCCN1CC(C(=O)N(CCN(C)C)Cc2ccc(C)s2)CC1=O (stereo not given)	< 4.52
CCc1ncncc1C(=O)NCCNS(=O)(=O)c1ccccc1	< 4.30
Fc1ccc(-c2nc(CN3CCCCC3Cn3cncn3)co2)cc1 (stereo not given)	< 4.52
CN(C)c1nccc(C2CCCCN2Cc2cnn3cccnc23)n1 (stereo not given)	< 4.52

Compound	pIC50
CN1CCN(c2ncc3c(=O)n(Cc4ccco4)ccc3n2)CC1	< 4.52
COc1ccc(-c2noc(C3CC(C(C)C)=NO3)n2)cc1 (stereo not given)	< 4.52
COCCCN(Cc1ccccn1)S(=O)(=O)N(C)C	< 4.52
O=C(NCCC(=O)N1CCCC1)c1ccc(SCc2cccnc2)cc1	< 4.52
CC(NC(=O)Nc1cccnc1N1CCCC1)c1ccn(C)c1 (stereo not given)	< 4.52
NS(=O)(=O)c1cccnc1Nc1c(Cl)cccc1Cl	< 4.52
Fc1ccc(Oc2nccnc2C2CCN(C3CCOCC3)CC2)cc1	< 4.52
CC(C)C(NC(=O)NCC1(CO)CC1)c1nnc2n1CCC2 (stereo not given)	< 4.52
COC(=O)C(C)CN(C)S(=O)(=O)c1c(Br)cc2[nH]c(=O)oc2c1Cl (stereo not given)	< 4.52
Cc1cc(NC(=O)CN2CCN(c3nccs3)C(C)C2)no1 (stereo not given)	< 4.52
CCCc1noc(C(C)N2CCN(CCn3ccccc3=O)CC2)n1 (stereo not given)	< 4.52
CCc1nc(NCCc2c(C)nn(CC)c2C)c2cnn(C)c2n1	< 4.52
CNc1cc(C)nc(C2CCN(CCO)CC2)n1	< 4.52
O=C(NCC(O)c1ccsc1)c1sccc1OC(F)F (stereo not given)	< 4.52
Cc1nccnc1-n1c(COCC(=O)O)nc2c(C)cccc21	< 4.30
COc1ccccc1CNC(=O)CS(=O)(=O)Cc1ccccc1	< 4.52
Cc1cccc(C(=O)NCC2CCS(=O)(=O)C2)n1 (stereo not given)	< 4.52
Cc1ccc(S(=O)(=O)NC[C@H]2OC[C@@H](NCc3cccs3)[C@@H]2O)cc1	< 4.52
CC(C)CCn1c(=O)n(CCn2cccc2)c2cc(C(=O)O)cnc21	< 4.52
Cc1cccc(CN2C[C@@H](F)[C@@H](OCc3nc4ccccc4[nH]3)C2)n1	< 4.52
COc1ccc(Cl)cc1C(=O)NCCNc1cnccn1	< 4.52
CC(C)C(=O)N1CCCC(Cc2cccnc2)C1 (stereo not given)	< 4.52
O=C(CCNc1ccccc1)NC1CCN(C(=O)C2CCCCC2)CC1	< 4.52

Compound	pIC50
CC(C)=CCn1ncc(N2CCOCC2)cc1=O	< 4.52
O=C1CCC2(CCN(Cc3cscn3)CC2)CN1CC1CCCO1 (stereo not given)	< 4.52
O=C(NCc1ccco1)[C@H]1C[C@@H]2CCN(c3nncs3)C[C@H]2O1	< 4.52
Cc1cccc(-c2cc(C(=O)O)sn2)c1	< 4.30
Cc1cnn(Cc2ccc(NC(=O)N3CCCC3)cc2)c1	< 4.52
CCC(c1ccc(F)cc1F)N1CCN(CCO)CC1 (stereo not given)	< 4.52
O=C(Cc1cccc2ccccc12)N1CCC(Nc2cccnn2)CC1	< 4.52
c1ccc(Cc2noc(CCNC3CCOC4(CCOCC4)C3)n2)cc1 (stereo not given)	< 4.52
CCn1cc(CN2CCC(c3ncc(Cl)cc3S(C)(=O)=O)CC2)c(C)n1	< 4.52
Cc1nn(CC(=O)N2CCN(c3ncccn3)CC2)c(C)c1Cl	< 4.52
Nc1nccnc1CC1CCCN(Cc2c[nH]c3ccccc23)C1 (stereo not given)	< 4.52
NC(Cc1nc(-c2ccccc2)no1)c1ccccc1 (stereo not given)	< 4.52
CN(C)C(=O)CN1CCCC2(CCN(c3ccsc3)C2=O)C1 (stereo not given)	< 4.52
Cc1sc(NC(=O)CN(C)CCOc2cccc(F)c2)c(C)c1C	< 4.52
CCOc1ccc(C(=O)CC(SC2CCCCC2)C(=O)O)cc1 (stereo not given)	< 4.30
Cc1nnc(CN(C)S(=O)(=O)c2ccc(Br)cc2Cl)n1C	< 4.52
CCc1nc(NS(=O)(=O)c2cccc(F)c2C)no1	< 4.52
CCC(=O)NCCc1cc2nc(-c3ccncc3)ccn2n1	< 4.52
CC(=O)Nc1ccc(Oc2cccc(CN3CCCC3)c2)cc1	< 4.30
CCCN(Cc1ccccc1C)C(CC)CO (stereo not given)	< 4.52
CC(C)c1ncc2c(n1)CN(Cc1nc(-c3ccccn3)no1)CC2	< 4.52
